Test results: US10604535B2, “Compounds, compositions and methods” (Denali Therapeutics Inc., priority 2016, dated 2020)

biological target: GST-hRIPK1 (8-327) (Homo sapiens (Human), UniProt Q13546); assay: Fluorescent Polarization Binding (FP Binding) assay; conditions: not given
Sequence (Q13546 8-327): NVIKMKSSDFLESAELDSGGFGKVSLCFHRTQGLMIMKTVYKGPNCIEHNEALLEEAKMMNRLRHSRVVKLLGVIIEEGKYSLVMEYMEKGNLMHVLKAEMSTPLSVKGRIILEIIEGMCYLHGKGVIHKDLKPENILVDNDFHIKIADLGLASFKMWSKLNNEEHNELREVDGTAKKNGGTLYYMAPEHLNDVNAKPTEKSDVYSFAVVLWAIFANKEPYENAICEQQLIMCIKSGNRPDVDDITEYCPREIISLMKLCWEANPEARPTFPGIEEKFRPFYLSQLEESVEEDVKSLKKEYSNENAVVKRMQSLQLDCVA

Row | IC50 | Compound
1 | 0.1 to 1000 nM | CN1C(=O)[C@@H](NC(=O)c2cc(C#N)n(Cc3ccc(F)cc3)n2)COc2cccnc21 [Example 159, (S)-5-cyano-1-(4-fluorobenzyl)-N-(5-methyl-4-oxo-2,3,4,5-tetrahydropyrido[3,2-b][1,4]oxazepin-3-yl)-1H-pyrazole-3-carboxamide]
2 | 0.1 to 1000 nM | CN1C(=O)[C@@H](NC(=O)c2nnc(C3(c4ccccc4)CC3)[nH]2)COc2cnccc21 [Example 113, (S)—N-(1-methyl-2-oxo-1,2,3,4-tetrahydropyrido[3,4-b][1,4]oxazepin-3-yl)-5-(1-phenylcyclopropyl)-4H-1,2,4-triazole-3-carboxamide]
3 | 0.1 to 1000 nM | CN1C(=O)[C@@H](NC(=O)c2nnc(C3(c4ccccc4)CC3)[nH]2)COc2cccnc21 [Example 106, (S)—N-(5-methyl-4-oxo-2,3,4,5-tetrahydropyrido[3,2-b][1,4]oxazepin-3-yl)-5-(1-phenylcyclopropyl)-4H-1,2,4-triazole-3-carboxamide]
4 | 0.1 to 1000 nM | C[C@H]1Oc2cccnc2N(C)C(=O)[C@H]1NC(=O)c1nn(Cc2ccc(C#N)cc2)cc1F [Example 127, 1-(4-Cyanobenzyl)-N-((2R,3S)-2,5-dimethyl-4-oxo-2,3,4,5-tetrahydropyrido[3,2-b][1,4]oxazepin-3-yl)-4-fluoro-1H-pyrazole-3-carboxamide]
5 | > 3000 nM | O=C(NC1COc2cccnc2-n2ccnc21)c1nn(Cc2ccccc2)cc1F (stereo in doubt) [Example 154A, (R)-1-benzyl-N-(6,7-dihydroimidazo[1,2-d]pyrido[3,2-b][1,4]oxazepin-7-yl)-4-fluoro-1H-pyrazole-3-carboxamide]
6 | > 3000 nM | O=C(N[C@@H]1COc2cccnc2-n2ccnc21)c1nnc(Cc2ccccc2)[nH]1 [Example 141A, (S)-5-Benzyl-N-(6,7-dihydroimidazo[1,2-d]pyrido[3,2-b][1,4]oxazepin-7-yl)-4H-1,2,4-triazole-3-carboxamide]
7 | > 3000 nM | CN1C(=O)[C@H](NC(=O)c2nnc(Cc3ccccc3)[nH]2)CCc2nn(C)cc21 [Example 105B, (R)-5-benzyl-N-(2,4-dimethyl-5-oxo-2,4,5,6,7,8-hexahydropyrazolo[4,3-b]azepin-6-yl)-4H-1,2,4-triazole-3-carboxamide]

Row | Compound | IC50
8 | CN1C(=O)[C@H](NC(=O)c2nnc(Cc3ccccc3)[nH]2)[C@@H]2C[C@@H]2c2nccnc21 [Example 119A, 5-benzyl-N-((7R,7aR,8aS)-5-methyl-6-oxo-5,6,7,7a,8,8a-hexahydro-cyclopropa[d]pyrazino[2,3-b]azepin-7-yl)-4H-1,2,4-triazole-3-carboxamide] | > 3000 nM
9 | C[C@H]1Oc2cccnc2N(C)C(=O)[C@H]1NC(=O)c1cnn(Cc2ccccc2)n1 [Example 204, 2-benzyl-N-((2R,3S)-2,5-dimethyl-4-oxo-2,3,4,5-tetrahydropyrido[3,2-b][1,4]oxazepin-3-yl)-2H-1,2,3-triazole-4-carboxamide] | 0.1 to 1000 nM

system: FADD-deficient Jurkat cells; assay: Cellular necroptosis assay (human TNFα-induced necrosis, CellTiter-Glo); assay type: cell-based; conditions: Homo sapiens, Jurkat, 48 h, TNFα 10 ng/mL, read-out: Cell IC50

Row | Compound | IC50
10 | CN1C(=O)[C@@H](NC(=O)c2nnc(Cc3ccccc3)[nH]2)C[C@@H](F)c2ccccc21 (mixture of isomers) [Example 11, 5-benzyl-N-((3S,5R)-5-fluoro-1-methyl-2-oxo-2,3,4,5-tetrahydro-1H-benzo[b]azepin-3-yl)-4H-1,2,4-triazole-3-carboxamide and 5-benzyl-N-((3R,5S)-5-fluoro-1-methyl-2-oxo-2,3,4,5-tetrahydro-1H-benzo[b]azepin-3-yl)-4H-1,2,4-triazole-3-carboxamide] | 0.1 to 1000 nM
11 | C[C@H]1Oc2cccnc2N(C)C(=O)[C@H]1NC(=O)c1nnc(C(F)(F)c2ccccc2)o1 [Example 221, 5-(difluoro(phenyl)methyl)-N-((2R,3S)-2,5-dimethyl-4-oxo-2,3,4,5-tetrahydropyrido[3,2-b][1,4]oxazepin-3-yl)-1,3,4-oxadiazole-2-carboxamide] | 0.1 to 1000 nM
12 | CN1C(=O)[C@@H](NC(=O)c2cc(Cc3ccccc3)on2)[C@H]2C[C@H]2c2ccccc21 [Example 7A, 5-benzyl-N-((2S)-4-methyl-3-oxo-1,1a,2,3,4,8b-hexahydrobenzo[b]cyclopropa[d]azepin-2-yl)isoxazole-3-carboxamide] | 0.1 to 1000 nM
13 | CN1C(=O)[C@@H](NC(=O)c2nn(Cc3ccccc3)cc2F)COc2cccnc21 [Example 76, (S)-1-benzyl-4-fluoro-N-(5-methyl-4-oxo-2,3,4,5-tetrahydropyrido[3,2-b][1,4]oxazepin-3-yl)-1H-pyrazole-3-carboxamide] | 0.1 to 1000 nM
14 | CN1C(=O)[C@@H](NC(=O)c2nn(Cc3ccccc3)cc2F)COc2ccccc21 [Example 64, (S)-1-benzyl-4-fluoro-N-(5-methyl-4-oxo-2,3,4,5-tetrahydrobenzo[b][1,4]oxazepin-3-yl)-1H-pyrazole-3-carboxamide] | 0.1 to 1000 nM
15 | CN1C(=O)[C@@H](NC(=O)c2nn(Cc3ncccn3)cc2F)COc2ccccc21 [Example 224, (S)-4-fluoro-N-(5-methyl-4-oxo-2,3,4,5-tetrahydrobenzo[b][1,4]oxazepin-3-yl)-1-(pyrimidin-2-ylmethyl)-1H-pyrazole-3-carboxamide] | 0.1 to 1000 nM
16 | CN1C(=O)[C@@H](NC(=O)c2nn(Cc3cocn3)cc2F)COc2cccnc21 [Example 209, (S)-4-fluoro-N-(5-methyl-4-oxo-2,3,4,5-tetrahydropyrido[3,2-b][1,4]oxazepin-3-yl)-1-(oxazol-4-ylmethyl)-1H-pyrazole-3-carboxamide] | 0.1 to 1000 nM
17 | CN1C(=O)[C@@H](NC(=O)c2cc(Cc3ccccc3)on2)CCc2sc(Cl)cc21 (stereo in doubt) [Example 1A, 5-Benzyl-N-(2-chloro-4-methyl-5-oxo-4H,5H,6H,7H,8H-thieno[3,2-b]azepin-6-yl)-1,2-oxazole-3-carboxamide] | 0.1 to 1000 nM
18 | CN1C(=O)C(NC(=O)c2cc(Cc3ccccc3)on2)[C@@H]2C[C@@H]2c2ccccc21 (stereo in doubt) [Example 7B, 5-benzyl-N-((2S)-4-methyl-3-oxo-1,1a,2,3,4,8b-hexahydrobenzo[b]cyclopropa[d]azepin-2-yl)isoxazole-3-carboxamide] | 1000 to 10000 nM
19 | CN1C(=O)[C@@H](NC(=O)c2nnc(Cc3ccccc3)s2)COc2cccnc21 [Example 85, (S)-5-benzyl-N-(5-methyl-4-oxo-2,3,4,5-tetrahydropyrido[3,2-b][1,4]oxazepin-3-yl)-1,3,4-thiadiazole-2-carboxamide] | 0.1 to 1000 nM
20 | CN1C(=O)[C@@H](NC(=O)c2nnc(Cc3ccccc3)[nH]2)[C@H]2C[C@H]2c2cc(C#N)cnc21 [Example 218, 5-benzyl-N-((1aS,2S,8bR)-7-cyano-4-methyl-3-oxo-1,1a,2,3,4,8b-hexahydrocyclopropa[d]pyrido[2,3-b]azepin-2-yl)-4H-1,2,4-triazole-3-carboxamide] | 0.1 to 1000 nM
21 | CN1C(=O)[C@@H](NC(=O)c2nnc(Cc3ccc(F)cc3)o2)[C@H]2C[C@H]2c2nccnc21 [Example 223, 5-(4-fluorobenzyl)-N-((7S,7aS,8aR)-5-methyl-6-oxo-5,6,7,7a,8,8a-hexahydrocyclopropa[d]pyrazino[2,3-b]azepin-7-yl)-1,3,4-oxadiazole-2-carboxamide] | 0.1 to 1000 nM

same assay, conditions: TNFα 10 ng/mL, 48 h; read-out: Cell IC50

Row | Compound | IC50
22 | CN1C(=O)[C@@H](NC(=O)c2nnc([C@H]3CCc4ccccc43)[nH]2)COc2cccnc21 [Example 54B, 5-((S)-2,3-dihydro-1H-inden-1-yl)-N—((S)-5-methyl-4-oxo-2,3,4,5-tetrahydropyrido[3,2-b][1,4]oxazepin-3-yl)-4H-1,2,4-triazole-3-carboxamide] | 0.1 to 1000 nM
